What was measured:
human IDO enzyme (IDO1) = human IDO enzyme (IDO1) (Homo sapiens (Human), UniProt P14902); assay: IDO1 enzyme assay; type: biochemical; details: for inhibition at 0.5 µM: read-out: IDO1 (inhibition % at 500 nM)
Method: The compounds were initially prepared in DMSO at 10 mM, then diluted in MES buffer to desired concentration. […] The mixture was centrifuged for 1 minute, then pre-incubated at room temperature for 30 minutes. […] The resulting reaction mixture was incubated at 25° C. for 40 minutes. The reaction was terminated by adding 50 ul of 30% (w/v) trichloroacetic acid. The sample was further incubated for 30 min at 60° C. and centrifuged at 2000 rpm for 5 min to remove precipitated protein. The supernatant was used to mix with an equal volume of Ehrlich's reagent (2% w/v p-dimethylaminobenzaldehyde in glacial acetic acid), then mixture was incubated at room temperature for 10 minutes. OD value was read at 490 nm in a spectrophotometer.
wherein High control=no compound; Low control=no enzyme and no compound.
IC50 values were calculated by fitting the doseresponse curves with Xlfit excel add-in version 4.3.1.

human TDO enzyme = human TDO enzyme (Homo sapiens (Human), UniProt P48775); assay: TDO enzyme assay; type: biochemical; details: for inhibition at 1 µM: read-out: TDO (inhibition % at 1000 nM)
Method: In vitro TDO enzymatic activity was determined in a mixture of 50 mM potassium phosphate buffer, pH 6.5; 200 nM human TDO enzyme, 300 μM L-Tryptophan, 0.2 mg/mL Catalase, 20 mM ascorbic Acid and 20 μM Methylene Blue. 100× compounds were prepared in DMSO from 1 mM, then diluted three fold, 8 doses in total. 2 μL compounds were added to 96 well plate, followed by addition of 100 μL 400 nM TDO and 0.4 mg/ml catalase in each well. The mixture was centrifuged for 1 minute, then pre-incubated at room temperature for 10 minutes. The reaction was started by the addition of 100 μL mixture of 600 μM L-Tryptophan, 40 μM methylene blue and 40 mM ascorbic acid in 50 mM potassium phosphate buffer, pH 6.5. […] Copy slope data from Synergy program, and convert slope values to inhibition values. Percent inhibition=(max−conversion)/(max−min)*100. “max” stands for high control; “min” stands for low control. Fit the data in GraphPad Prism5.0 to obtain IC50 values. Equation used is: Y=Bottom+(Top−Bottom)/(1+10^((Log IC50−X)*HillSlope).

Sequence of human TDO enzyme (P48775 whole entry): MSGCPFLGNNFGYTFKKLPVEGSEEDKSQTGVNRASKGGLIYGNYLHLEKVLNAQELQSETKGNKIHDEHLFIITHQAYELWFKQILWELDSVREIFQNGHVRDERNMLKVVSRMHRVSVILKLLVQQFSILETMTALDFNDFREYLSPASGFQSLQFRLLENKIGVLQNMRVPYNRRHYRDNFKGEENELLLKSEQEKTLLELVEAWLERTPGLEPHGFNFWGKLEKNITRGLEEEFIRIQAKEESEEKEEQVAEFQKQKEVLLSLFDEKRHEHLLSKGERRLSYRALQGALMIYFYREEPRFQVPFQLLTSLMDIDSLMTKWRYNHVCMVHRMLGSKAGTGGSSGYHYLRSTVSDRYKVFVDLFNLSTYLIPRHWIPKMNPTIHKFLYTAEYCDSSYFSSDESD
Sequence of human IDO enzyme (IDO1) (P14902 whole entry): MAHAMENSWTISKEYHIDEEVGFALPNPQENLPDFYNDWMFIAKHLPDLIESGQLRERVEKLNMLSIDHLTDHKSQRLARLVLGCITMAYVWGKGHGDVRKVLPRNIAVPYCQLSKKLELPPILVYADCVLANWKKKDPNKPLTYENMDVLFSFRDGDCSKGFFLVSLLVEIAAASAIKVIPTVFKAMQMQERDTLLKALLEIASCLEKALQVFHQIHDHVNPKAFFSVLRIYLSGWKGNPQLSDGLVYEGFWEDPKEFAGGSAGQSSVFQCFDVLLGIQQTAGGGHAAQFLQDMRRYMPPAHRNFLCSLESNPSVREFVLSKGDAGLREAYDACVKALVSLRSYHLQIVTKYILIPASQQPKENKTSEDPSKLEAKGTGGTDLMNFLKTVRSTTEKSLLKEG

| SMILES | IC50 (human IDO enzyme (IDO1)) [nM] | inhibition at 1 µM (human TDO enzyme) [%] | IC50 (human TDO enzyme) [nM] | inhibition at 0.5 µM (human IDO enzyme (IDO1)) [%] |
| --- | --- | --- | --- | --- |
| OC(CC1c2c(F)cccc2-c2cncn21)C12C[C@@H]3C[C@@H](CC(O)(C3)C1)C2 (stereo partly drawn) [Compound 15d-2, (1s,3r,5R,7S)-3-(2-(6-fluoro-5H-imidazo[5,1-a]isoindol-5-yl)-1-hydroxyethyl)adamantan-1-ol] | > 500 | – | – | – |
| OC(CC1c2c(F)cccc2-c2cncn21)C1C2CC3CC1CC(O)(C3)C2 [Compound 18k-2, (1s,3R,5S,7s)-4-(2-(6-fluoro-5H-imidazo[5,1-a]isoindol-5-yl)-1-hydroxyethyl)adamantan-1-ol] | < 100 | – | – | – |
| OC(CC1c2ccccc2-c2cncn21)C12CC3CC(CC(C3)C1)C2 (stereo not shown) [Compound 10, 1-((3r,5r,7r)-adamantan-1-yl)-2-(5H-imidazo[5,1-a]isoindol-5-yl)ethanol] | < 500 | > 50 | – | – |
| OC(CC1c2c(F)cccc2-c2cncn21)C12C[C@@H]3C[C@@H](CC(O)(C3)C1)C2 (stereo partly drawn) [Compound 15d-3, (1s,3r,5R,7S)-3-(2-(6-fluoro-5H-imidazo[5,1-a]isoindol-5-yl)-1-hydroxyethyl)adamantan-1-ol] | < 100 | – | – | – |
| OC1[C@@H]2CC3C[C@H]1CC(C(O)CC1c4c(F)cccc4-c4cncn41)(C3)C2 (stereo partly drawn) [Compound 17, (1R,2s,3S,5s,7s)-5-(2-(6-fluoro-5H-imidazo[5,1-a]isoindol-5-yl)-1-hydroxyethyl)adamantan-2-ol] | < 100 | – | < 200 | – |
| FC(F)(CC1c2ccccc2-c2cncn21)C1CCCCC1 (stereo not shown) [Compound 6, 5-(2-cyclohexyl-2,2-difluoroethyl)-5H-imidazo[5,1-a]isoindole] | – | > 50 | – | > 50 |
| OC(CC1c2c(F)cccc2-c2cncn21)C12C[C@@H]3C[C@@H](CC(O)(C3)C1)C2 (stereo partly drawn) [Compound 15d-4, (1s,3r,5R,7S)-3-(2-(6-fluoro-5H-imidazo[5,1-a]isoindol-5-yl)-1-hydroxyethyl)adamantan-1-ol] | > 500 | – | – | – |
| OC(CC1c2c(F)cccc2-c2cncn21)C12CCC(O)(CC1)CC2 (stereo not shown) [Compound 16, 4-(2-(6-fluoro-5H-imidazo[5,1-a]isoindol-5-yl)-1-hydroxyethyl)bicyclo[2.2.2]octan-1-ol] | < 100 | – | < 200 | – |
| OC(CC1c2c(F)cccc2-c2cncn21)C1C2CC3CC1CC(O)(C3)C2 [Compound 18k-1, (1s,3R,5S,7s)-4-(2-(6-fluoro-5H-imidazo[5,1-a]isoindol-5-yl)-1-hydroxyethyl)adamantan-1-ol] | < 500 | – | – | – |
| OC(CC1c2ccccc2-c2cncn21)C1CCN(c2ccc(C(F)(F)F)cc2)CC1 (stereo not shown) [Compound 8, 2-(5H-imidazo[5,1-a]isoindol-5-yl)-1-(1-(4-(trifluoromethyl)phenyl)piperidin-4-yl)ethanol] | – | > 50 | – | > 50 |
| OC(CC1c2ccccc2-c2cncn21)C1CCN(C2CC2)CC1 (stereo not shown) [Compound 3, 1-(1-cyclopropylpiperidin-4-yl)-2-(5H-imidazo[5,1-a]isoindol-5-yl)ethanol] | – | > 50 | – | – |
| O=[N+]([O-])c1cc(C(F)(F)F)ccc1N1CCC(C(O)CC2c3ccccc3-c3cncn32)CC1 (stereo not shown) [Compound 9, 2-(5H-imidazo[5,1-a]isoindol-5-yl)-1-(1-(2-nitro-4-(trifluoromethyl)phenyl)piperidin-4-yl)ethanol] | < 500 | – | < 200 | – |
| OC(CC1c2c(F)cccc2-c2cncn21)C12C[C@@H]3C[C@@H](CC(O)(C3)C1)C2 (stereo partly drawn) [Compound 15d-1, (1s,3r,5R,7S)-3-(2-(6-fluoro-5H-imidazo[5,1-a]isoindol-5-yl)-1-hydroxyethyl)adamantan-1-ol] | > 500 | – | – | – |
| OC(CC1c2ccccc2-c2cncn21)C12C[C@@H]3C[C@@H](CC(O)(C3)C1)C2 (stereo partly drawn) [Compound 14f, (1s,3r,5R,7S)-3-(1-hydroxy-2-(5H-imidazo[5,1-a]isoindol-5-yl)ethyl)adamantan-1-ol] | < 100 | – | < 200 | – |
| O=[N+]([O-])c1ccccc1N1CCC(C(O)CC2c3ccccc3-c3cncn32)CC1 (stereo not shown) [Compound 7, 2-(5H-imidazo[5,1-a]isoindol-5-yl)-1-(1-(2-nitrophenyl)piperidin-4-yl)ethanol] | – | – | – | > 50 |
| OC(CC1c2ccccc2-c2cncn21)C1CCN(c2ccccc2)CC1 (stereo not shown) [Compound 1, 2-(5H-imidazo[5,1-a]isoindol-5-yl)-1-(1-phenylpiperidin-4-yl)ethanol] | – | – | – | > 50 |
| OC(CC1c2c(F)cccc2-c2cncn21)C12C[C@@H]3C[C@@H](CC(O)(C3)C1)C2 (stereo partly drawn) [Compound 15d, (1s,3r,5R,7S)-3-(2-(6-fluoro-5H-imidazo[5,1-a]isoindol-5-yl)-1-hydroxyethyl)adamantan-1-ol] | < 100 | – | < 200 | – |
| OC(CC1c2c(F)cccc2-c2cncn21)C12CC3CC(CC(C3)C1)C2 (stereo not shown) [Compound 15e, 1-((3r,5r,7r)-adamantan-1-yl)-2-(6-fluoro-5H-imidazo[5,1-a]isoindol-5-yl)ethanol] | < 100 | – | < 500 | – |
| OC(C1CCCCC1)C1(C2c3ccccc3-c3cncn32)CC1 (stereo not shown) [Compound 13, (1-(5H-imidazo[5,1-a]isoindol-5-yl)cyclopropyl)(cyclohexyl) methanol] | – | > 50 | – | – |
